The target in one assay is T1, hFXR (Homo sapiens, UniProt Q96RI1).
T1 construct: expressed in transfected cells; host or cells: HEK293T
T1 sequence (Q96RI1 1-472 isoform Q96RI1-2): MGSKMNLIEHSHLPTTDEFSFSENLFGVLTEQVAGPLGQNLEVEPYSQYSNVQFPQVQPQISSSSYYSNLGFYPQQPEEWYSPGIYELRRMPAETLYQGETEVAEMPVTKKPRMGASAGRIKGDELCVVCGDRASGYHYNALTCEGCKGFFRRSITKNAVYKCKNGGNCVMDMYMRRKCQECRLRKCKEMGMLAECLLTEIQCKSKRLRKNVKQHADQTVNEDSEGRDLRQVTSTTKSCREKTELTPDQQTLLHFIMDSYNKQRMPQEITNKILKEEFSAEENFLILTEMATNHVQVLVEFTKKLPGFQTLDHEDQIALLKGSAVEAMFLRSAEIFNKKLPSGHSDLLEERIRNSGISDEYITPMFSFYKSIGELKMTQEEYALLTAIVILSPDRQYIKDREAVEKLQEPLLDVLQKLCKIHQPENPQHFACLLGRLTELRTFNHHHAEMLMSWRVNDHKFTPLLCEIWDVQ
Kind of assay: Luciferase reporter assay, FXR antagonism in transfected HEK293T cells. Particulars: 100 µmol/L, in the presence of GW4064, HEK293T. It is filed as cell-based. The procedure:
HEK293T cells were used for the luciferase report assays and were cultured in DMEM with 10% FBS. The cells were incubated in DMEM media with 1% FBS for 4–6 h and then exposed to the indicated concentrations of compounds for 24 h.
For the FXR antagonism experiment, HEK293T cells were seeded in 96-well plates and transfected with pCMV-Script-hFXR and pGL4.11-hSHP-luciferase at a density of 3 × 10^4 cells/well, before culturing overnight. The compounds at indicated concentrations were added to the cells and incubated at 37°C for 1 h, before stimulating with 1% DMSO (negative control) and 5 μmol/L GW4064 (positive control) for 24 h. For the FXR agonism experiment, HEK293T cells were seeded in 96-well plates and transfected with pCMV-Script-hFXR and pGL4.11-hSHP-luciferase at a density of 3 × 10^4 cells/well, before culturing overnight. Then compounds at indicated concentrations were added to the cells and incubated at 37°C for 24 h. […]
The luciferase activities and cell viabilities were detected by the FIREFLYGLO Luciferase Assay System and Cell Titer-Blue® Cell Viability Assay according to the manufacturer’s instructions. Firefly luciferase activities and cell viabilities were measured using Spectra Max M5e (Molecular Devices).
(In general: A reporter such as luciferase makes a cellular process visible.)

The target of the next assay is T2, PPARα (Homo sapiens, UniProt Q07869).
T2 sequence (Q07869 1-468): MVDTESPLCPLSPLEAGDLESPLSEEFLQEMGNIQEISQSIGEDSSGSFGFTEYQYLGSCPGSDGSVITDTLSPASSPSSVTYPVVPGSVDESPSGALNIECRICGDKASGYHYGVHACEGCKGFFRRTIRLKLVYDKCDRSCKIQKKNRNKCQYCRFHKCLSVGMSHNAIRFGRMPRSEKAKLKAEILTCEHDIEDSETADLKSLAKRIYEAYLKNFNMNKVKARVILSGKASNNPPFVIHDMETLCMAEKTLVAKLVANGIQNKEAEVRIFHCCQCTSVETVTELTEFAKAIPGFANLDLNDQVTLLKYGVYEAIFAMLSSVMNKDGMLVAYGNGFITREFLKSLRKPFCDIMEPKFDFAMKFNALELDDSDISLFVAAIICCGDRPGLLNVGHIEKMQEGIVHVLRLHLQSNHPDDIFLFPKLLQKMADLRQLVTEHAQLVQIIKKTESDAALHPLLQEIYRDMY
Kind of assay: PPARα cell-based reporter assay. As to conditions: 10 μmol/L; inhibition of agonist-induced receptor activation. The source says: Inhibition% means inhibition percentage of agonist-induced receptor activation.

Assay [1] has as its system GAN diet-induced MASH in Fxr^△IE mice. Kind of assay: GAN diet-fed Fxr^△IE mice. It is filed as in vivo, mouse. As to conditions: GAN diet 20 weeks, oral 10 mg/kg daily for 8 weeks. The procedure:
For the long-term MASH model, 8- to 10-week-old male C57BL/6 J mice were fed with an MCS diet or MCD diet for 2 weeks, before the MCD models were administered with vehicle or GUDCA (50 mg/kg), OCA (30 mg/kg), and DC646 (10 mg/kg) for 4 weeks. The serum, liver, and intestine were collected 2 h after the final dosing. Male Fxr^△IE mice (8–10 weeks old) were fed with a GAN diet for 20 weeks and administered with vehicle or DC646 (10 mg/kg) from the 12th week for 8 weeks. The serum, liver, and intestine were collected 2 h after the final dosing.
Hepatic TG and TC, and plasma ALT and AST levels were measured using commercial kits from Nanjing Jiancheng Bioengineering Institute according to the manufacturer’s instructions. To measure hepatic TG contents, liver tissues (~10 mg) were homogenized in 100 μL 1% TritonX-100 and centrifuged at 3000 rpm for 10 min. […] Hepatic TG or TC levels were read at 510 or 500 nm using a microplate reader (Versamax, Molecular Devices) and normalized using the protein concentration. […] The data were acquired using the kinetic mode with an interval of 30 s and 31 total reads at 340 nm using a microplate reader (Versamax, Molecular Devices).
Tissue specimens were fixed in 10% formalin for 12–24 h before being dehydrated and paraffin-embedded. […] At least three discontinuous liver sections were evaluated for each mouse.

For the compound `CC(C)C[C@@H]1NC(=O)[C@@H]2CN(CCO2)c2cccc3c2c(cn3[Si](C(C)C)(C(C)C)C(C)C)C[C@H](NS(=O)(=O)C(F)(F)F)C(=O)OCCCCNC(=O)[C@H](CC(C)C)NC(=O)[C@@H]2CN(CCO2)c2cccc3c2c(cn3[Si](C(C)C)(C(C)C)C(C)C)C[C@H](NS(=O)(=O)C(F)(F)F)C(=O)OCCCCNC1=O` [DC646, N,N'-((1^2R,1^4S,16^2R,16^4S,4R,13R,19R,28R)-13,28-diisobutyl-5,12,15,20,27,30-hexaoxo-2^1,17^1-bis(triisopropylsilyl)-2^1H,17^1H-6,21-dioxa-11,14,26,29-tetraaza-1(4,2),16(2,4)-dimorpholina-2,17(4,3)-diindolacyclotriacontaphane-4,19-diyl)bis(1,1,1-trifluoromethanesulfonamide)], on hFXR, the “Suppression of FXR activation (relative luciferase activity)” value was “more than 70%”. For the same compound, the inhibition – broadly, the relative decrease from the control value, in per cent – at 10 µM on PPARα is -1.3%. Moreover, in assay [1], the “Liver/body weight ratio, serum ALT, serum AST, liver TG, liver TC and NAS score” value is on record as “did not reduce”; the “mRNA levels of genes in the intestinal FXR signaling” value is listed as “no difference”.

These data come from paper PMC11992618, “Development of cyclopeptide inhibitors specifically disrupting FXR–coactivator interaction in the intestine as a novel therapeutic strategy for MASH” (Life Metabolism, 2025).
